Test results reported in patent US4786633A, “Cephalosporin compounds” (Tanabe Seiyaku Co., Ltd., priority 1986, dated 1988).
Converted amounts (≈) assume the structure as drawn.

What was measured:
[1] = system: Staphylococcus aureus Smith; assay: Antimicrobial activity in vitro (MIC, standard agar plate dilution method); format: cell-based; conditions: Mueller-Hinton agar, read-out: M.I.C. (minimum inhibitory concentration)
Method: (§1) (Antimicrobial activity in vitro)
(§2) The minimum inhibitory concentration (MIC, μg/ml) of a test compound was determined by means of a standard agar plate dilution method (based on the standard method of Japan Society of Chemotherapy). Media used in the experiment were Mueller-Hinton agar (MHA; product of Nissui).

[2] = system: Pseudomonas aeruginosa PI-67; assay: as above; format: cell-based; conditions: PI67, Mueller-Hinton agar, read-out: M.I.C. (minimum inhibitory concentration)
Method: as §1, §2

[3] = system: Staphylococcus aureus Smith; assay: Protective effects on bacterial infections in mice (Staphylococcus aureus Smith); format: in vivo; conditions: im, 168 h, intraperitoneal challenge, compound intramuscularly one hour after infection, survival 7 days after infection, probit analysis, read-out: ED50 (median effective dose)
Method: (§3) (Protective effects on bacterial infections in mice) Ten mice weighing 20±1 g were used for each dose level. Mice were challenged via the intraperitoneal route with sufficient bacteria to kill all non-treated mice within 24 hours. All bacteria were suspended in a physiological saline solution containing 6% mucin. A test compound was administered intramuscularly one hour after the infection. Survival ratios were determined 7 days after the infection. The median effective doses (ED50, mg/kg) of the test compound were estimated by the probit analysis.

[4] = system: Pseudomonas aeruginosa PI-67; assay: Protective effects on bacterial infections in mice (Pseudomonas aeruginosa PI-67); format: in vivo; conditions: PI67, im, 168 h, intraperitoneal challenge, compound intramuscularly one hour after infection, survival 7 days after infection, probit analysis, read-out: ED50 (median effective dose)
Method: as §3

MIC [1]	MIC [2]	Compound	ED50 [3]	ED50 [4]
0.78 µg/mL (≈ 1.32 µM)	1.56 µg/mL (≈ 2.65 µM)	C[n+]1ccccc1SCC1=C(C(=O)[O-])N2C(=O)C(NC(=O)/C(=N\O[C@H]3CCNC3=O)c3csc(N)n3)C2SC1 (stereo partly drawn) [Test Compound 2, 7β-{(Z)-2-(2-aminothiazol-4-yl)-2-[((3S)-2-oxopyrrolidin-3-yl)oxyimino]acetamido}-3-(1-methyl-2-pyridinio)thiomethyl-3-cephem-4-carboxylate]	0.25 mg/kg	15.8 mg/kg
0.78 µg/mL (≈ 1.32 µM)	0.78 µg/mL (≈ 1.32 µM)	C[n+]1ccc(SCC2=C(C(=O)[O-])N3C(=O)C(NC(=O)/C(=N\O[C@H]4CCNC4=O)c4csc(N)n4)C3SC2)cc1 (stereo partly drawn) [Test Compound 1, 7β-{(Z)-2-(2-aminothiazol-4-yl)-2-[((3S)-2-oxopyrrolidin-3-yl)oxyimino]acetamido}-3-(1-methyl-4-pyridinio)thiomethyl-3-cephem-4-carboxylate]	0.14 mg/kg	12.3 mg/kg
1.56 µg/mL (≈ 2.53 µM)	3.13 µg/mL (≈ 5.08 µM)	C=CC[n+]1ccccc1SCC1=C(C(=O)[O-])N2C(=O)C(NC(=O)/C(=N\O[C@H]3CCNC3=O)c3csc(N)n3)C2SC1 (stereo partly drawn) [Test Compound 3, 7β-{(Z)-2-(2-aminothiazol-4-yl)-2-[((3S)-2-oxopyrrolidin-3-yl)oxyimino]acetamido}-3-(1-allyl-2-pyridinio)thiomethyl-3-cephem-4-carboxylate]	0.4 mg/kg	10.8 mg/kg
